From ChEMBL document CHEMBL4428125, “8-Substituted 1,3-dimethyltetrahydropyrazino[2,1-f]purinediones: Water-soluble adenosine receptor antagonists and monoamine oxidase B inhibitors” (Bioorg Med Chem, 2016)
≈ marks a conversion by molar mass, not a printed value. Calls of active or inactive are those of the source. No cut-off for these calls is given here.

Tests used:
Adenosine receptor A1 [1] = target: T1, Adenosine receptor A1 (Rattus norvegicus, UniProt P25099); test: Displacement of [3H]CCPA from A1 receptor in rat brain cortex membranes by liquid scintillation counting method; format: cell membranes
T1 sequence (P25099 whole entry): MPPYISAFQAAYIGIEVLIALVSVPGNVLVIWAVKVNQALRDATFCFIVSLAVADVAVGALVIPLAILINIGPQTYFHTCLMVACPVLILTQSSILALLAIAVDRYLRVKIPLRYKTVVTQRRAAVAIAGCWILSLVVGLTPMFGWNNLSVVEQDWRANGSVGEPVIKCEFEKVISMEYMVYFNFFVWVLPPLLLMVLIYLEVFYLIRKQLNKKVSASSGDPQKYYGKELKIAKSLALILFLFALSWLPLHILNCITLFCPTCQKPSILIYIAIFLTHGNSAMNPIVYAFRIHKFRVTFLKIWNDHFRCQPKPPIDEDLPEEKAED

[2] = target: T2, Adenosine receptor A2b (Homo sapiens) (UniProt P29275); test: Displacement of [3H]PSB-603 from human A2B receptor expressed in CHO cell membrane at 1 uM relative to control; format: cell membranes
T2 sequence (whole entry): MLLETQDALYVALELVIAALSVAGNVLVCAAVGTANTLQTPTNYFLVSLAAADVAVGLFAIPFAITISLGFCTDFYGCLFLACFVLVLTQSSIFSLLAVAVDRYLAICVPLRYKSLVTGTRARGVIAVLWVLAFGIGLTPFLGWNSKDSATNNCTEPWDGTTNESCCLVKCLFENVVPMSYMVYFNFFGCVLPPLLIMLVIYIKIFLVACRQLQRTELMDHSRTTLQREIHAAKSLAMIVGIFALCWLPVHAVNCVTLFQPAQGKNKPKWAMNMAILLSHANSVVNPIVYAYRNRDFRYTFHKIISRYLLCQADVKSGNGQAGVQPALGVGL

[3] = target: T2, Adenosine receptor A2b (Homo sapiens); test: Displacement of [3H]PSB-603 from human A2B receptor expressed in CHO cell membrane at 0.3 uM relative to control; format: cell membranes
[4] = target: T3, Adenosine receptor A3 (Homo sapiens) (UniProt P0DMS8); test: Displacement of [3H]PSB-11 from human A3 receptor expressed in CHO cell membrane at 10 uM by liquid scintillation counting method relative to control relative to control; format: cell membranes
T3 sequence (whole entry): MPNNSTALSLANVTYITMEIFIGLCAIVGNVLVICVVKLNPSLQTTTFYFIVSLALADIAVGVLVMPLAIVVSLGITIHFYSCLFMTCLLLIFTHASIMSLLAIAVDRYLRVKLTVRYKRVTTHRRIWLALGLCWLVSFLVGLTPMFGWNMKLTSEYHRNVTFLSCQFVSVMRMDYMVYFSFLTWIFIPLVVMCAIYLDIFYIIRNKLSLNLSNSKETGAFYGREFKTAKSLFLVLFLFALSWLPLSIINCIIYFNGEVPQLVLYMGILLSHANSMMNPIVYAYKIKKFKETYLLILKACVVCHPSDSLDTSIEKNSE

[5] = Thermodynamic solubility of the compound at pH 7.4; format: physicochemical; conditions: buffer, read-out: Therm_solubility
[6] = target: T4, Amine oxidase [flavin-containing] B (Homo sapiens, UniProt P27338); test: Inhibition of recombinant human MAO-B expressed in baculovirus infected BTI insect cells preincubated for 30 mins followed by addition of p-tyramine as substrate measured over 45 mins by Amplex Red MAO assay
T4 sequence (P27338 whole entry): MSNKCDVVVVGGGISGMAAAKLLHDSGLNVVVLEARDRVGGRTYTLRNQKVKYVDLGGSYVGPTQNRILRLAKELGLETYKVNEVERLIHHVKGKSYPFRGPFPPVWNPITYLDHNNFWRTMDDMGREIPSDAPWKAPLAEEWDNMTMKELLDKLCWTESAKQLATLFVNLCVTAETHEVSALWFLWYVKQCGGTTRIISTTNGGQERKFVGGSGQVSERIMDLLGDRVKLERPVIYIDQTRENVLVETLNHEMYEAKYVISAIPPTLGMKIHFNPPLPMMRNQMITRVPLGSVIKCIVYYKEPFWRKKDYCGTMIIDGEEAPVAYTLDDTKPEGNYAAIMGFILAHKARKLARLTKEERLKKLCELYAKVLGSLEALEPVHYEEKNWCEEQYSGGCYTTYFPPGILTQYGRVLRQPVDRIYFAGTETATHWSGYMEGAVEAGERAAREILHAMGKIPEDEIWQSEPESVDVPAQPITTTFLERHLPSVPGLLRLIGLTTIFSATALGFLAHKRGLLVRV

[7] = target: T4, Amine oxidase [flavin-containing] B; test: Inhibition of recombinant human MAO-B expressed in baculovirus infected BTI insect cells at 10 uM preincubated for 30 mins followed by addition of p-tyramine as substrate measured over 45 mins by Amplex Red MAO assay relative to control; conditions: 0.75 h
[8] = target: Adenosine receptor A2a (Rattus norvegicus) (UniProt P30543); test: Displacement of [3H]MSX from A2A receptor in rat brain striatum membranes at 1 uM measured after 30 mins by liquid scintillation counting method relative to control; format: cell membranes
Adenosine receptor A2a (Rattus norvegicus), sequence (P30543 whole entry): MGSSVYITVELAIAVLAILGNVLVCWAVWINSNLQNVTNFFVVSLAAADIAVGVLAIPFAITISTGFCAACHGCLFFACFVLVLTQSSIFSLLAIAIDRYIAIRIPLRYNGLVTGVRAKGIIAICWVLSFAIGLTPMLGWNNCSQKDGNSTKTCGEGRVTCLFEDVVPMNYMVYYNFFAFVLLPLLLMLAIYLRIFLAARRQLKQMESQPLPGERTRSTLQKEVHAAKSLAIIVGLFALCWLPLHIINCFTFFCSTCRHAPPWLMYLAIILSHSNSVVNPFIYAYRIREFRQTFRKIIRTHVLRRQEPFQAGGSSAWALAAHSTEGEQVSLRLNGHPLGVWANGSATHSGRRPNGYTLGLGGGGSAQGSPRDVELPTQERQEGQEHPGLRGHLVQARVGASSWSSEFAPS

[9] = target: T5, Adenosine receptor A1 (Rattus norvegicus) (UniProt P25099); test: Displacement of [3H]CCPA from A1 receptor in rat brain cortex membranes at 1.5 uM by liquid scintillation counting method; format: cell membranes
T5 sequence (whole entry): T1 sequence (P25099 whole entry)

Adenosine receptor A3 = target: T6, Adenosine receptor A3 (Homo sapiens, UniProt P0DMS8); test: Displacement of [3H]PSB-11 from human A3 receptor expressed in CHO cell membrane by liquid scintillation counting method relative to control; format: cell membranes
T6 sequence (P0DMS8 whole entry): T3 sequence (whole entry)

Adenosine receptor A2b [10] = target: T7, Adenosine receptor A2b (Homo sapiens, UniProt P29275); test: Displacement of [3H]PSB-603 from human A2B receptor expressed in CHO cell membrane; format: cell membranes
T7 sequence (P29275 whole entry): T2 sequence (whole entry)

[11] = target: T3, Adenosine receptor A3 (Homo sapiens); test: Displacement of [3H]PSB-11 from human A3 receptor expressed in CHO cell membrane at 3 uM by liquid scintillation counting method relative to control relative to control; format: cell membranes
Adenosine receptor A2a [12] = target: Adenosine receptor A2a (Rattus norvegicus, UniProt P30543); test: Displacement of [3H]MSX from A2A receptor in rat brain striatum membranes measured after 30 mins by liquid scintillation counting method; format: cell membranes
Adenosine receptor A2a (Rattus norvegicus, UniProt P30543), sequence (P30543 whole entry): as above

[13] = target: T3, Adenosine receptor A3 (Homo sapiens); test: Displacement of [3H]PSB-11 from human A3 receptor expressed in CHO cell membrane at 1 uM by liquid scintillation counting method relative to control relative to control; format: cell membranes
Adenosine receptor A2a [14] = target: T8, Adenosine receptor A2a (Homo sapiens, UniProt P29274); test: Agonist activity at recombinant human A2A receptor expressed in CHO cells assessed as increase in forskolin-induced cAMP level at 10 uM preincubated for 20 mins prior to forskolin-stimulation measure after 5 mins by liquid scintillation counting method; format: functional, cell-based
T8 sequence (P29274 whole entry): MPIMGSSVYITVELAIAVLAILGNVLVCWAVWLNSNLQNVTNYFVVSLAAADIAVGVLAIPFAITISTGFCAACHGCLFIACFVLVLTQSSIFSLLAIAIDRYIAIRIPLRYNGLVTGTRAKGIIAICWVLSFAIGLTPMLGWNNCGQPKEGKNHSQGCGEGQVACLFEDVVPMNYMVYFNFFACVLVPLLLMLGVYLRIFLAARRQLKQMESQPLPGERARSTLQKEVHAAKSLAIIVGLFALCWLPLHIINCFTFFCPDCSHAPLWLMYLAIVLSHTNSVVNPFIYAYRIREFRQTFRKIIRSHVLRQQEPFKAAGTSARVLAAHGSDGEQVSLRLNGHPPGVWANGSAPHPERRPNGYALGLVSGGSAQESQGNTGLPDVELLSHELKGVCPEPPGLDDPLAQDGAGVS

Adenosine receptor A2a [15] = target: T8, Adenosine receptor A2a; test: Agonist activity at recombinant human A2A receptor expressed in CHO cells assessed as increase in forskolin-induced cAMP level at 1 uM preincubated for 20 mins prior to forskolin-stimulation measure after 5 mins by liquid scintillation counting method; format: functional, cell-based
Adenosine receptor A2a [16] = target: T8, Adenosine receptor A2a; test: Displacement of [3H]MSX from human A2A receptor measured after 30 mins by liquid scintillation counting method
[17] = target: T9, Adenosine receptor A1 (Homo sapiens) (UniProt P30542); test: Agonist activity at recombinant human A1 receptor expressed in CHO cells assessed as inhibition of forskolin-induced cAMP accumulation at 1 uM preincubated for 20 mins prior to forskolin-stimulation measure after 5 mins by liquid scintillation counting method; format: functional, cell-based
T9 sequence (whole entry): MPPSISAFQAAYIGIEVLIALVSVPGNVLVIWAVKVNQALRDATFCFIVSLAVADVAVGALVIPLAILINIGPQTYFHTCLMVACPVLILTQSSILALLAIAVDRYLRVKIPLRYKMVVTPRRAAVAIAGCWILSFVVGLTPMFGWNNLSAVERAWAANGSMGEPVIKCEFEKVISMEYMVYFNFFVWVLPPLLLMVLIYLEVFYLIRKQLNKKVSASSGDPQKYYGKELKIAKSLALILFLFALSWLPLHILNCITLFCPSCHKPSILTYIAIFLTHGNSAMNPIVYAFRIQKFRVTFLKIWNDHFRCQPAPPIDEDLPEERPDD

Adenosine receptor A1 [18] = target: T10, Adenosine receptor A1 (Homo sapiens, UniProt P30542); test: Displacement of [3H]CCPA from human A1 receptor expressed in CHO cell membrane by liquid scintillation counting method; format: cell membranes
T10 sequence (P30542 whole entry): T9 sequence (whole entry)

[19] = target: T9, Adenosine receptor A1 (Homo sapiens); test: Agonist activity at recombinant human A1 receptor expressed in CHO cells assessed as inhibition of forskolin-induced cAMP accumulation at 10 uM preincubated for 20 mins prior to forskolin-stimulation measure after 5 mins by liquid scintillation counting method; format: functional, cell-based
Adenosine receptor A2b [20] = target: T7, Adenosine receptor A2b; test: Displacement of [3H]PSB-603 from human A2B receptor expressed in CHO cell membrane measured after 75 mins by liquid scintillation counting method; format: cell membranes
[21] = target: T2, Adenosine receptor A2b (Homo sapiens); test: Displacement of [3H]PSB-603 from human A2B receptor expressed in CHO cell membrane measured after 75 mins by liquid scintillation counting method relative to control; format: cell membranes
[22] = target: T11, Amine oxidase [flavin-containing] A (Homo sapiens, UniProt P21397); test: Inhibition of recombinant human MAO-A expressed in baculovirus infected BTI insect cells preincubated for 30 mins followed by addition of p-tyramine as substrate measured over 45 mins by Amplex Red MAO assay
T11 sequence (P21397 whole entry): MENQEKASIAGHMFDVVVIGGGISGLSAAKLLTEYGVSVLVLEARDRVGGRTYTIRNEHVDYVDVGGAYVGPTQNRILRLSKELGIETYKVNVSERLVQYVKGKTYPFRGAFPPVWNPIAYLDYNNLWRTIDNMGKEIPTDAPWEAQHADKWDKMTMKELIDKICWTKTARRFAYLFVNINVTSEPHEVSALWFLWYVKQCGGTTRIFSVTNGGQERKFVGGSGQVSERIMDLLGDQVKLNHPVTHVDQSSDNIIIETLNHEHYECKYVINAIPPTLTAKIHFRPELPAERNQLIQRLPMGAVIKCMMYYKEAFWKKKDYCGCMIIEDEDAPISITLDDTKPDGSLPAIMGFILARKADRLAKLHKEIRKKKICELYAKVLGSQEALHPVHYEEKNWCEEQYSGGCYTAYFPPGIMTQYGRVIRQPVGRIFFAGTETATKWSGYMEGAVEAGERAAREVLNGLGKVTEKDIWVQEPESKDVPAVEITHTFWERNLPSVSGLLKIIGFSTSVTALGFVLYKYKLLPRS

Adenosine receptor A2a [23] = target: T8, Adenosine receptor A2a; test: Displacement of [3H]MSX from human A2A receptor by liquid scintillation counting method
[24] = target: T11, Amine oxidase [flavin-containing] A; test: Inhibition of recombinant human MAO-A expressed in baculovirus infected BTI insect cells at 10 uM preincubated for 30 mins followed by addition of p-tyramine as substrate measured over 45 mins by Amplex Red MAO assay relative to control; conditions: 0.75 h
Adenosine receptor A1 [25] = target: T1, Adenosine receptor A1; test: Displacement of [3H]MSX from rat A1 receptor measured after 75 mins by liquid scintillation counting method
Adenosine receptor A1 [26] = target: T1, Adenosine receptor A1; test: Displacement of [3H]CCPA from rat A1 receptor by liquid scintillation counting method

Ki (Adenosine receptor A1 [1]) [nM] | Activity [2] [%] | Activity [4] [%] | solubility thermodynamic [5] [µg/mL] | IC50 [6] [µM] | inhibition at 10 µM [7] [%] | Activity [8] [%] | Activity [9] [%] | Ki (Adenosine receptor A3) [µM] | Ki (Adenosine receptor A2b [10]) [nM] | Ki (Adenosine receptor A2a [12]) [nM] | Activity [13] [%] | Ki (Adenosine receptor A1 [18]) [nM] | SMILES | other results
> 1500 | 10 | 19 | 800 (≈ 2930 µM) | > 10 | 27 | 28 | 13 | > 10 | > 300 | > 1000 | – | – | C#CCN1CCn2c(nc3c2c(=O)n(C)c(=O)n3C)C1 | Activity [3]: 10%; Activity [11]: 19%
> 1500 | 9 | – | – | > 10 | 15 | 34 | 1 | > 1 | > 1000 | > 10000 | 2 | – | Cn1c(=O)c2c(nc3n2CCN(c2ccc(Cl)cc2)C3)n(C)c1=O | –
166 | 3 | 46 | 700 (≈ 1690 µM) | > 10 | 33 | – | – | ≥ 10 | > 1000 | 121 | – | 642 | Cn1c(=O)c2c(nc3n2CCN(Cc2csc(-c4cccs4)n2)C3)n(C)c1=O | Activity (Adenosine receptor A2a [14]): inactive; Activity (Adenosine receptor A2a [15]): inactive; Ki (Adenosine receptor A2a [16]): 203 nM; Activity [17]: inactive; Activity [19]: inactive
– | – | – | – | 0.197 | – | – | – | > 1 | – | – | 13 | 791 | Cn1c(=O)c2c(nc3n2CCN(Cc2ccc(Cl)c(Cl)c2)C3)n(C)c1=O | Ki (Adenosine receptor A2b [20]): > 1000 nM; Activity [21]: 15%; IC50 [22]: > 10 µM; Ki (Adenosine receptor A2a [23]): 1510 nM; inhibition at 10 µM [24]: 5%; Ki (Adenosine receptor A1 [25]): 322 nM; Ki (Adenosine receptor A1 [26]): 351 nM
